Reference: ChEMBL document CHEMBL1255312, “Activity of daptomycin against Listeria monocytogenes isolates from cerebrospinal fluid” (Antimicrob Agents Chemother, 2008)
Values after ≈ are worked out from the molar mass of the structure shown.

Key:
Staphylococcus aureus [1] = assay: Antimicrobial activity against Staphylococcus aureus infected in hydrocephalic rabbit administered intraventricularly as single dose; details: Cardiac ventricle
Homo sapiens = assay: Plasma concentration in healthy human at 4 mg/kg, iv QD; type: ADME, organism-based; set-up: dose 4 mg/kg, route intravenous; details: in vivo
Listeria monocytogenes [2] = assay: Antimicrobial activity against Listeria monocytogenes isolated from cerebrospinal fluid of meningitis patient by broth dilution method; type: functional
Listeria monocytogenes [3] = assay: Antimicrobial activity against Listeria monocytogenes isolated from cerebrospinal fluid of meningitis patient by Etest method; type: functional
Staphylococcus aureus [4] = assay: Antimicrobial activity against methicillin-susceptible Staphylococcus aureus infected in experimental rabbit meningitis model; type: functional
Streptococcus pneumoniae = assay: Antimicrobial activity against penicillin-, quinolone-resistant Streptococcus pneumoniae WB4 infected in experimental rabbit meningitis model; type: functional

## CCCCCCCCCC(=O)N[C@@H](Cc1c[nH]c2ccccc12)C(=O)N[C@H](CC(N)=O)C(=O)N[C@@H](CC(=O)O)C(=O)N[C@@H]1C(=O)NCC(=O)N[C@@H](CCCN)C(=O)N[C@@H](CC(=O)O)C(=O)N[C@H](C)C(=O)N[C@@H](CC(=O)O)C(=O)NCC(=O)N[C@H](CO)C(=O)N[C@@H]([C@H](C)CC(=O)O)C(=O)N[C@@H](CC(=O)c2ccccc2N)C(=O)O[C@@H]1C
Staphylococcus aureus [1]
  MIC: 0.25 µg/mL (≈ 0.154 µM)
Homo sapiens
  Cp: 60 µg/mL
Listeria monocytogenes [2]
  MIC90: 4 µg/mL (≈ 2.47 µM)
Listeria monocytogenes [3]
  MIC90: 4 µg/mL (≈ 2.47 µM)
  MIC95: 1 µg/mL (≈ 0.617 µM)
Staphylococcus aureus [4]
  MIC: 1 µg/mL (≈ 0.617 µM)
Streptococcus pneumoniae
  MIC: 0.06 µg/mL (≈ 0.037 µM)
